According to ChEMBL document CHEMBL1201862, “PubChem BioAssay data set” (2004):
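These data come from cells grown in 96-well plates and exposed to compound for 48 hours at five concentrations. GI50 = concentration required for 50% inhibition of growth.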 The source made the active and inactive calls. No stated cut-off is given here; in the data, active = GI50 up to about 1.1 µM and inactive = higher.

Columns and labels:
Assay in all cases: growth of human tumour cells (NCI), 48 h
SF-295 = tested on: SF-295
HCT-116 = tested on: HCT-116
RPMI-8226 = tested on: RPMI-8226
HCT-15 = tested on: HCT-15
OVCAR-4 = tested on: OVCAR-4
OVCAR-3 = tested on: OVCAR-3
UACC-62 = tested on: UACC-62
RXF 393 = tested on: RXF 393
U-251 = tested on: U-251
NCI-H460 = tested on: NCI-H460
SK-MEL-28 = tested on: SK-MEL-28
LOX IMVI = tested on: LOX IMVI
HOP-92 = tested on: HOP-92
UACC-257 = tested on: UACC-257
MOLT-4 = tested on: MOLT-4
SNB-19 = tested on: SNB-19
MDA-MB-231 = tested on: MDA-MB-231
MDA-N = tested on: MDA-N
BT-549 = tested on: BT-549

Measured: GI50

O=C(/C=C\c1cccc2ccccc12)c1cccc2ccccc12
4.03 µM: HCT-15
inactive: SF-295 14.7 µM | HCT-116 6.22 µM | RPMI-8226 6.95 µM | OVCAR-4 6.37 µM | OVCAR-3 7.91 µM | UACC-62 9.04 µM | RXF 393 5 µM | U-251 6.34 µM | NCI-H460 8.65 µM | SK-MEL-28 8.17 µM | LOX IMVI 5.61 µM | HOP-92 > 10 µM | UACC-257 16 µM | MOLT-4 2.82 µM | SNB-19 10.6 µM

COC(=O)N/N=C(\Cc1ccccc1)CN(C)C
inactive: SF-295 > 100 µM | HCT-116 > 100 µM | RPMI-8226 > 100 µM | OVCAR-3 > 100 µM | UACC-62 > 100 µM | RXF 393 > 100 µM | U-251 > 100 µM | NCI-H460 > 100 µM | SK-MEL-28 > 100 µM | LOX IMVI > 100 µM | HOP-92 > 100 µM | UACC-257 > 100 µM | MOLT-4 > 100 µM

CCOc1ccccc1NC(=O)C1=C(C)NC(C)=C(C(=O)Nc2ccccc2OCC)C1c1ccc(NC(C)=O)cc1
inactive: SF-295 13.2 µM | RPMI-8226 47.8 µM | OVCAR-4 43.8 µM | OVCAR-3 45.3 µM | RXF 393 20.8 µM | U-251 46.2 µM | NCI-H460 35.7 µM | SK-MEL-28 73.8 µM | LOX IMVI 38.9 µM | HOP-92 9.62 µM | UACC-257 23.6 µM | MOLT-4 32.1 µM | SNB-19 96.2 µM

O=C(Nc1ccccc1)N1C(c2ccccc2)=N[C@@H](c2ccccc2)[C@@H]1c1ccccc1
inactive: SF-295 21.9 µM | HCT-116 17.6 µM | RPMI-8226 22.5 µM | OVCAR-4 17.6 µM | OVCAR-3 22.9 µM | UACC-62 19.9 µM | RXF 393 15.2 µM | NCI-H460 31.4 µM | SK-MEL-28 15.6 µM | LOX IMVI 14.6 µM | HOP-92 18.3 µM | UACC-257 19 µM | MOLT-4 19.1 µM | SNB-19 31.6 µM
23.8 µM: HCT-15

O=P(Oc1ccc2ccccc2c1)(N1CC1)N1CC1
> 100 µM: HCT-15
inactive: SF-295 10.9 µM | HCT-116 53.3 µM | RPMI-8226 > 100 µM | OVCAR-4 89.1 µM | OVCAR-3 65.8 µM | UACC-62 2.88 µM | RXF 393 14.3 µM | U-251 27.6 µM | NCI-H460 8.99 µM | SK-MEL-28 28.4 µM | LOX IMVI 28.8 µM | HOP-92 24.5 µM | UACC-257 38.2 µM | MOLT-4 53.2 µM | SNB-19 26.9 µM

O=C1C2=C(C(c3ccccc3)=C1c1ccccc1)c1ccccc1C1(c3ccccc3)C2=C(O)C(c2ccccc2)=C1c1ccccc1 (centres undefined)
> 100 µM: HCT-15
inactive: SF-295 > 100 µM | HCT-116 > 100 µM | RPMI-8226 > 100 µM | OVCAR-4 > 100 µM | OVCAR-3 > 100 µM | UACC-62 > 100 µM | RXF 393 > 100 µM | U-251 > 100 µM | NCI-H460 > 100 µM | SK-MEL-28 > 100 µM | LOX IMVI > 100 µM | HOP-92 > 100 µM | UACC-257 > 100 µM | MOLT-4 > 100 µM

O=C1Oc2cc3c(c4cccc1c24)OCN(c1ccc(Cl)cc1)C3
2.97 µM: HCT-15
active: LOX IMVI 0.176 µM
inactive: SF-295 48 µM | HCT-116 11.3 µM | RPMI-8226 7.14 µM | OVCAR-4 28.1 µM | OVCAR-3 12 µM | UACC-62 4.79 µM | RXF 393 > 52.7 µM | U-251 41.9 µM | NCI-H460 2.31 µM | SK-MEL-28 > 49.2 µM | HOP-92 20.5 µM | UACC-257 34.9 µM | MOLT-4 7 µM | SNB-19 47.8 µM

CCN(CC)CCNC(=O)c1nn(C)c(=S)[nH]c1=S
> 100 µM: HCT-15
inactive: SF-295 > 100 µM | HCT-116 > 100 µM | RPMI-8226 > 100 µM | OVCAR-4 > 100 µM | OVCAR-3 > 100 µM | UACC-62 > 100 µM | RXF 393 > 100 µM | U-251 > 100 µM | NCI-H460 > 100 µM | SK-MEL-28 > 100 µM | LOX IMVI > 100 µM | HOP-92 > 100 µM | UACC-257 > 100 µM | MOLT-4 > 100 µM | SNB-19 > 100 µM

COc1cc2c(cc1OC)[C@@H]1[C@H](C#N)C(=O)C(C)(C)N1CC2
inactive: MDA-MB-231 28.6 µM | SF-295 > 100 µM | HCT-116 > 100 µM | RPMI-8226 53.7 µM | OVCAR-4 > 100 µM | OVCAR-3 > 100 µM | UACC-62 > 100 µM | MDA-N > 100 µM | U-251 > 100 µM | NCI-H460 > 100 µM | SK-MEL-28 > 100 µM | LOX IMVI > 100 µM | HOP-92 > 100 µM | BT-549 > 100 µM | UACC-257 > 100 µM | MOLT-4 > 100 µM | SNB-19 > 100 µM
> 100 µM: HCT-15

N#CC(NNC(=O)c1ccccc1O)c1ccccc1 (centres undefined)
2.73 µM: HCT-15
active: HCT-116 0.577 µM | UACC-62 0.398 µM | RXF 393 1.03 µM | U-251 0.486 µM | NCI-H460 0.646 µM | HOP-92 0.695 µM
inactive: SF-295 2.89 µM | RPMI-8226 6.32 µM | OVCAR-4 3.85 µM | OVCAR-3 3.12 µM | SK-MEL-28 > 100 µM | LOX IMVI 2.9 µM | UACC-257 5.94 µM | MOLT-4 2.15 µM

ClCCCN1CCCCC1CCl (centres undefined)
inactive: SF-295 70.1 µM | HCT-116 > 100 µM | RPMI-8226 > 100 µM | OVCAR-4 > 100 µM | OVCAR-3 > 100 µM | UACC-62 43.7 µM | RXF 393 > 100 µM | U-251 > 100 µM | NCI-H460 10.2 µM | SK-MEL-28 > 100 µM | LOX IMVI > 100 µM | HOP-92 > 100 µM | MOLT-4 39.4 µM | SNB-19 > 100 µM
> 100 µM: HCT-15

CC[n+]1c(/C=C/c2ccc(N(CCCl)CCCl)cc2)ccc2cc(I)ccc21
inactive: SF-295 2.04 µM | NCI-H460 1.31 µM
6.52 µM: HCT-15
active: HCT-116 0.318 µM | RPMI-8226 0.601 µM | OVCAR-4 0.608 µM | OVCAR-3 0.553 µM | UACC-62 0.507 µM | RXF 393 0.839 µM | U-251 0.67 µM | SK-MEL-28 0.912 µM | LOX IMVI 0.766 µM | HOP-92 0.379 µM | UACC-257 0.514 µM | MOLT-4 0.723 µM | SNB-19 0.843 µM

Cc1ccc(S(=O)(=O)N/N=C/c2oc(-c3cccc([N+](=O)[O-])c3)c(-c3cccc([N+](=O)[O-])c3)c2[N+](=O)[O-])cc1
62.2 µM: HCT-15
inactive: SF-295 49.8 µM | HCT-116 32.4 µM | RPMI-8226 24 µM | OVCAR-4 > 100 µM | OVCAR-3 > 100 µM | UACC-62 17.8 µM | RXF 393 27 µM | U-251 66.5 µM | NCI-H460 > 100 µM | SK-MEL-28 51.6 µM | LOX IMVI 16.7 µM | HOP-92 31.9 µM | UACC-257 64.7 µM | MOLT-4 25.8 µM | SNB-19 67.1 µM

COc1cc(=O)n2c3ccccc3n(C)c2c1C#N
> 100 µM: HCT-15
inactive: MDA-MB-231 > 100 µM | SF-295 22.6 µM | HCT-116 43.8 µM | RPMI-8226 > 100 µM | OVCAR-4 > 100 µM | OVCAR-3 > 100 µM | UACC-62 > 100 µM | MDA-N > 100 µM | RXF 393 > 100 µM | U-251 > 100 µM | NCI-H460 > 100 µM | HOP-92 > 100 µM | BT-549 > 100 µM | UACC-257 > 100 µM | MOLT-4 45.3 µM | SNB-19 > 100 µM

O=C1NC2=NN=C(c3ccc(Br)cc3)CN2NC12c1ccccc1-c1ccccc12
inactive: MDA-MB-231 > 100 µM | SF-295 > 100 µM | HCT-116 > 100 µM | OVCAR-4 > 100 µM | OVCAR-3 > 100 µM | UACC-62 > 100 µM | MDA-N > 100 µM | RXF 393 > 100 µM | U-251 > 100 µM | NCI-H460 > 100 µM | SK-MEL-28 > 100 µM | LOX IMVI > 100 µM | HOP-92 > 100 µM | BT-549 > 100 µM | UACC-257 > 100 µM | SNB-19 > 100 µM
> 100 µM: HCT-15

CCN(CC)C(=O)CCCCCCCCC1CO1 (centres undefined)
inactive: MDA-MB-231 > 100 µM | SF-295 > 100 µM | HCT-116 > 100 µM | RPMI-8226 > 100 µM | OVCAR-4 > 100 µM | OVCAR-3 > 100 µM | UACC-62 > 100 µM | MDA-N > 100 µM | RXF 393 > 100 µM | U-251 > 100 µM | NCI-H460 > 100 µM | SK-MEL-28 > 100 µM | LOX IMVI 63.4 µM | HOP-92 > 100 µM | UACC-257 > 100 µM | MOLT-4 > 100 µM | SNB-19 > 100 µM
> 100 µM: HCT-15

CCCc1c(C(=O)OCC)[nH]c(-c2ccc(-c3[nH]c(C(=O)OCC)c(CCC)c3C(=O)OCC)s2)c1C(=O)OCC
inactive: SF-295 27.9 µM | HCT-116 33.3 µM | RPMI-8226 87.7 µM | OVCAR-4 18.4 µM | OVCAR-3 31.6 µM | UACC-62 32.1 µM | RXF 393 5.38 µM | U-251 36.1 µM | NCI-H460 37 µM | SK-MEL-28 95.5 µM | LOX IMVI 18.1 µM | HOP-92 25.2 µM | UACC-257 66.1 µM | MOLT-4 65 µM | SNB-19 78.3 µM
92.5 µM: HCT-15

COC1=C(OC)C(=O)c2cc(SC)c(=O)c(SC)cc2C1=O
inactive: SF-295 15.7 µM | HCT-116 20 µM | RPMI-8226 15.2 µM | OVCAR-4 12.2 µM | OVCAR-3 8.93 µM | UACC-62 2.12 µM | RXF 393 4.9 µM | U-251 17.9 µM | NCI-H460 45.5 µM | SK-MEL-28 13.5 µM | LOX IMVI 4.48 µM | HOP-92 17.7 µM | UACC-257 6.65 µM | MOLT-4 3.79 µM | SNB-19 22.6 µM
25.1 µM: HCT-15
